{"source": "patent US6358885B1", "about": "“Substituted phenylheterocyclic herbicides” (Mississippi State University, priority 1992, dated 2002)", "key": {"rape": {"system": "rape", "assay": "Test B preemergence/postemergence greenhouse plant response rating 0 to 10", "assay_type": "in vivo, Brassica napus", "details": "for Plant response rating, Rape: 0 to 10 scale", "outline": "(§1)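 Test chemicals, dissolved in a non-phytotoxic solvent, were applied to soil at planting and, at the same time, over foliage of seedlings at the one to four leaf stage.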"}, "wild buckwheat": {"system": "wild buckwheat", "assay": "Test C preemergence/postemergence greenhouse plant response rating 0 to 100", "assay_type": "in vivo, Polygonum convolvulus", "details": "for Plant response rating, Wild buckwheat: 125 g/ha, 0 to 100 scale", "outline": "(§2)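 Compounds in non-phytotoxic solvent applied preemergence to sandy loam one day after planting, postemergence at the 1–4 leaf stage, or to ~2.5 cm floodwater over silt loam.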"}, "crabgrass": {"system": "crabgrass", "assay": "Test B preemergence/postemergence greenhouse plant response rating 0 to 10", "assay_type": "in vivo, Digitaria spp.", "details": "for Plant response rating, Crabgrass: 0 to 10 scale", "outline": "as §1"}, "wild oat": {"system": "wild oat", "assay": "Test C preemergence/postemergence greenhouse plant response rating 0 to 100", "assay_type": "in vivo, Avena fatua", "details": "for Plant response rating, Wild oat: 125 g/ha, 0 to 100 scale", "outline": "as §2"}, "wheat": {"system": "wheat", "assay": "Test C preemergence/postemergence greenhouse plant response rating 0 to 100", "assay_type": "in vivo, Triticum aestivum", "details": "for Plant response rating, Wheat: 125 g/ha, 0 to 100 scale", "outline": "as §2"}, "morningglory": {"system": "morningglory", "assay": "Test C preemergence/postemergence greenhouse plant response rating 0 to 100", "assay_type": "in vivo, Ipomoea hederacea", "details": "for Plant response rating, Morningglory: 125 g/ha, 0 to 100 scale", "outline": "as §2"}, "rice": {"system": "rice", "assay": "Test C flood test plant response rating 0 to 100", "assay_type": "in vivo, Oryza sativa", "outline": "as §2"}, "giant foxtail": {"system": "giant foxtail", "assay": "Test B preemergence/postemergence greenhouse plant response rating 0 to 10", "assay_type": "in vivo, Setaria faberii", "details": "for Plant response rating, Giant foxtail: 0 to 10 scale", "outline": "as §1"}, "purple nutsedge": {"system": "purple nutsedge", "assay": "Test B preemergence/postemergence greenhouse plant response rating 0 to 10", "assay_type": "in vivo, Cyperus rotundus", "details": "for Plant response rating, Nutsedge: 0 to 10 scale", "outline": "as §1"}, "barnyardgrass": {"system": "barnyardgrass", "assay": "Test B preemergence/postemergence greenhouse plant response rating 0 to 10", "assay_type": "in vivo, Echinochloa crus-galli", "details": "for Plant response rating, Barnyardgrass: 0 to 10 scale", "outline": "as §1"}, "corn": {"system": "corn", "assay": "Test C preemergence/postemergence greenhouse plant response rating 0 to 100", "assay_type": "in vivo, Zea mays", "details": "for Plant response rating, Corn: 125 g/ha, 0 to 100 scale", "outline": "as §2"}, "blackgrass": {"system": "blackgrass", "assay": "Test B preemergence/postemergence greenhouse plant response rating 0 to 10", "assay_type": "in vivo, Alopecurus myosuroides", "details": "for Plant response rating, Blackgrass: 0 to 10 scale", "outline": "as §1"}}, "data": [{"smiles": "COCOc1cc(-c2nn3c(c2Cl)CCCC3)c(F)cc1Cl", "note": "[Compound 58]", "values": [{"measurement": "Plant response rating, Rape", "setting": "rape; POSTEMERGENCE, Rate 50 g/ha", "value": 9}, {"measurement": "Plant response rating, Rape", "setting": "rape; PREEMERGENCE, Rate 50 g/ha", "value": 5}, {"measurement": "Plant response rating (0 to 10 scale), Rape", "setting": "rape; PREEMERGENCE, Rate 200 g/ha", "value": 5}, {"measurement": "Plant response rating, Rape", "setting": "rape; Rate 200 g/ha, POSTEMERGENCE", "value": 10}, {"measurement": "Plant response rating, Wild buckwheat", "setting": "wild buckwheat; POSTEMERGENCE", "value": 100}, {"measurement": "Plant response rating (0 to 100), Wild buckwheat", "setting": "wild buckwheat; POSTEMERGENCE, Rate 2 g/ha", "value": 100}, {"measurement": "Plant response rating, Wild buckwheat", "setting": "wild buckwheat; PREEMERGENCE", "value": 100}, {"measurement": "Plant response rating (0 to 100), Wild buckwheat", "setting": "wild buckwheat; PREEMERGENCE, Rate 2 g/ha", "value": 0}, {"measurement": "Plant response rating (0 to 100), Wild buckwheat", "setting": "wild buckwheat; Rate 8 g/ha, POSTEMERGENCE", "value": 100}, {"measurement": "Plant response rating (0 to 100), Wild buckwheat", "setting": "wild buckwheat; Rate 8 g/ha, PREEMERGENCE", "value": 40}, {"measurement": "Plant response rating (0 to 100), Wild buckwheat", "setting": "wild buckwheat; Rate 31 g/ha, POSTEMERGENCE", "value": 100}, {"measurement": "Plant response rating (0 to 100), Wild buckwheat", "setting": "wild buckwheat; Rate 31 g/ha, PREEMERGENCE", "value": 100}, {"measurement": "Plant response rating, Crabgrass", "setting": "crabgrass; POSTEMERGENCE, Rate 50 g/ha", "value": 3}, {"measurement": "Plant response rating, Crabgrass", "setting": "crabgrass; PREEMERGENCE, Rate 50 g/ha", "value": 0}, {"measurement": "Plant response rating (0 to 10 scale), Crabgrass", "setting": "crabgrass; PREEMERGENCE, Rate 200 g/ha", "value": 9}, {"measurement": "Plant response rating, Crabgrass", "setting": "crabgrass; Rate 200 g/ha, POSTEMERGENCE", "value": 3}, {"measurement": "Plant response rating, Wild oat", "setting": "wild oat; POSTEMERGENCE", "value": 75}, {"measurement": "Plant response rating (0 to 100), Wild oat", "setting": "wild oat; POSTEMERGENCE, Rate 2 g/ha", "value": 20}, {"measurement": "Plant response rating, Wild oat", "setting": "wild oat; PREEMERGENCE", "value": 75}, {"measurement": "Plant response rating (0 to 100), Wild oat", "setting": "wild oat; PREEMERGENCE, Rate 2 g/ha", "value": 0}, {"measurement": "Plant response rating (0 to 100), Wild oat", "setting": "wild oat; Rate 8 g/ha, POSTEMERGENCE", "value": 30}, {"measurement": "Plant response rating (0 to 100), Wild oat", "setting": "wild oat; Rate 8 g/ha, PREEMERGENCE", "value": 0}, {"measurement": "Plant response rating (0 to 100), Wild oat", "setting": "wild oat; Rate 31 g/ha, POSTEMERGENCE", "value": 50}, {"measurement": "Plant response rating (0 to 100), Wild oat", "setting": "wild oat; Rate 31 g/ha, PREEMERGENCE", "value": 10}, {"measurement": "Plant response rating, Wheat", "setting": "wheat; POSTEMERGENCE", "value": 60}, {"measurement": "Plant response rating (0 to 100), Wheat", "setting": "wheat; POSTEMERGENCE, Rate 2 g/ha", "value": 30}, {"measurement": "Plant response rating, Wheat", "setting": "wheat; PREEMERGENCE", "value": 30}, {"measurement": "Plant response rating (0 to 100), Wheat", "setting": "wheat; PREEMERGENCE, Rate 2 g/ha", "value": 0}, {"measurement": "Plant response rating (0 to 100), Wheat", "setting": "wheat; Rate 8 g/ha, POSTEMERGENCE", "value": 40}, {"measurement": "Plant response rating (0 to 100), Wheat", "setting": "wheat; Rate 8 g/ha, PREEMERGENCE", "value": 0}, {"measurement": "Plant response rating (0 to 100), Wheat", "setting": "wheat; Rate 31 g/ha, POSTEMERGENCE", "value": 50}, {"measurement": "Plant response rating (0 to 100), Wheat", "setting": "wheat; Rate 31 g/ha, PREEMERGENCE", "value": 10}, {"measurement": "Plant response rating, Morningglory", "setting": "morningglory; POSTEMERGENCE", "value": 100}, {"measurement": "Plant response rating (0 to 100), Morningglory", "setting": "morningglory; POSTEMERGENCE, Rate 2 g/ha", "value": 50}, {"measurement": "Plant response rating, Morningglory", "setting": "morningglory; PREEMERGENCE", "value": 30}, {"measurement": "Plant response rating (0 to 100), Morningglory", "setting": "morningglory; PREEMERGENCE, Rate 2 g/ha", "value": 0}, {"measurement": "Plant response rating (0 to 100), Morningglory", "setting": "morningglory; Rate 8 g/ha, POSTEMERGENCE", "value": 70}, {"measurement": "Plant response rating (0 to 100), Morningglory", "setting": "morningglory; Rate 8 g/ha, PREEMERGENCE", "value": 0}, {"measurement": "Plant response rating (0 to 100), Morningglory", "setting": "morningglory; Rate 31 g/ha, POSTEMERGENCE", "value": 90}, {"measurement": "Plant response rating (0 to 100), Morningglory", "setting": "morningglory; Rate 31 g/ha, PREEMERGENCE", "value": 0}, {"measurement": "Plant response rating (0 to 100), Rice Japonica", "setting": "rice; POSTEMERGENCE section, flood test, Rate 2 g/ha", "value": 0}, {"measurement": "Plant response rating (0 to 100), Rice Japonica", "setting": "rice; Rate 8 g/ha, under POSTEMERGENCE head (flood test species)", "value": 0}, {"measurement": "Plant response rating (0 to 100), Rice Japonica", "setting": "rice; Rate 31 g/ha, under POSTEMERGENCE head (flood test species)", "value": 0}, {"measurement": "Plant response rating Rice Japonica", "setting": "rice; flood test species listed under POSTEMERGENCE, 125 g/ha, 0 to 100 scale", "value": 50}, {"measurement": "Plant response rating, Giant foxtail", "setting": "giant foxtail; POSTEMERGENCE, Rate 50 g/ha", "value": 6}, {"measurement": "Plant response rating, Giant foxtail", "setting": "giant foxtail; PREEMERGENCE, Rate 50 g/ha", "value": 9}, {"measurement": "Plant response rating (0 to 10 scale), Giant foxtail", "setting": "giant foxtail; PREEMERGENCE, Rate 200 g/ha", "value": 10}, {"measurement": "Plant response rating, Giant foxtail", "setting": "giant foxtail; Rate 200 g/ha, POSTEMERGENCE", "value": 6}, {"measurement": "Plant response rating, Nutsedge", "setting": "purple nutsedge; POSTEMERGENCE, Rate 50 g/ha", "value": 5}, {"measurement": "Plant response rating, Nutsedge", "setting": "purple nutsedge; PREEMERGENCE, Rate 50 g/ha", "value": 0}, {"measurement": "Plant response rating (0 to 10 scale), Nutsedge", "setting": "purple nutsedge; PREEMERGENCE, Rate 200 g/ha", "value": 0}, {"measurement": "Plant response rating, Nutsedge", "setting": "purple nutsedge; Rate 200 g/ha, POSTEMERGENCE", "value": 9}, {"measurement": "Plant response rating, Barnyardgrass", "setting": "barnyardgrass; POSTEMERGENCE, Rate 50 g/ha", "value": 6}, {"measurement": "Plant response rating, Barnyardgrass", "setting": "barnyardgrass; PREEMERGENCE, Rate 50 g/ha", "value": 4}, {"measurement": "Plant response rating (0 to 10 scale), Barnyardgrass", "setting": "barnyardgrass; PREEMERGENCE, Rate 200 g/ha", "value": 7}, {"measurement": "Plant response rating, Barnyardgrass", "setting": "barnyardgrass; Rate 200 g/ha, POSTEMERGENCE", "value": 9}, {"measurement": "Plant response rating, Corn", "setting": "corn; POSTEMERGENCE", "value": 65}, {"measurement": "Plant response rating (0 to 100), Corn", "setting": "corn; POSTEMERGENCE, Rate 2 g/ha", "value": 40}, {"measurement": "Plant response rating, Corn", "setting": "corn; PREEMERGENCE", "value": 30}, {"measurement": "Plant response rating (0 to 100), Corn", "setting": "corn; PREEMERGENCE, Rate 2 g/ha", "value": 0}, {"measurement": "Plant response rating (0 to 100), Corn", "setting": "corn; Rate 8 g/ha, POSTEMERGENCE", "value": 40}, {"measurement": "Plant response rating (0 to 100), Corn", "setting": "corn; Rate 8 g/ha, PREEMERGENCE", "value": 0}, {"measurement": "Plant response rating (0 to 100), Corn", "setting": "corn; Rate 31 g/ha, POSTEMERGENCE", "value": 50}, {"measurement": "Plant response rating (0 to 100), Corn", "setting": "corn; Rate 31 g/ha, PREEMERGENCE", "value": 0}, {"measurement": "Plant response rating, Blackgrass", "setting": "blackgrass; POSTEMERGENCE, Rate 50 g/ha", "value": 6}, {"measurement": "Plant response rating, Blackgrass", "setting": "blackgrass; PREEMERGENCE, Rate 50 g/ha", "value": 4}, {"measurement": "Plant response rating (0 to 10 scale), Blackgrass", "setting": "blackgrass; PREEMERGENCE, Rate 200 g/ha", "value": 7}, {"measurement": "Plant response rating, Blackgrass", "setting": "blackgrass; Rate 200 g/ha, POSTEMERGENCE", "value": 7}]}]}
